According to article PMC9276671, “A first-in-human Phase I dose-escalation trial of the novel therapeutic peptide, ALM201, demonstrates a favourable safety profile in unselected patients with ovarian cancer and other advanced solid tumours” (British Journal of Cancer, 2022):
No end group written: not given here.

Experiment: Plasma pharmacokinetics of ALM201 in Phase I patients (validated LC-MS/MS, Phoenix WinNonlin)
Details: human, plasma, sc; for Tmax: median; for Tmax / AUC(0-t) / Cmax: plasma LC-MS/MS; for AUC(0-t): AUC0-t; for AUC(0-t) / Cmax: Gmean (CV)
[1] = 300 mg, 300 mg SC, day 1 cycle 1, n = 3
[2] = 300 mg, 300 mg SC, day 3 cycle 1, n = 3
[3] = 300 mg, 300 mg SC, day 18 cycle 2, n = 3
[4] = 300 mg, 300 mg SC, day 18 cycle 4, n = 1
[5] = 300 mg, 300 mg SC, day 18 cycle 6, n = 1

IRQQPRDPPTETLELEVSPDPAS [ALM201]
level at 6 h (200 mg, Plasma concentration, geometric mean (CV%), 200 mg SC, day 1 cycle 1, 6 h after dosing, n = 4, LC-MS/MS): 518 ng/mL
level at 0.5 h (200 mg, Plasma concentration, geometric mean (CV%), 200 mg SC, day 3 cycle 1, 0.5 h after dosing, n = 4, LC-MS/MS): 1090 ng/mL
level at 1 h (200 mg, Plasma concentration, geometric mean (CV%), 200 mg SC, day 3 cycle 1, 1 h after dosing, n = 3, LC-MS/MS): 1410 ng/mL
level at 1.5 h (200 mg, Plasma concentration, geometric mean (CV%), 200 mg SC, day 3 cycle 1, 1.5 h after dosing, n = 4, LC-MS/MS): 1320 ng/mL
level at 2 h (200 mg, Plasma concentration, geometric mean (CV%), 200 mg SC, day 3 cycle 1, 2 h after dosing, n = 4, LC-MS/MS): 1540 ng/mL
level at 3.5 h (200 mg, Plasma concentration, geometric mean (CV%), 200 mg SC, day 3 cycle 1, 3.5 h after dosing, n = 4, LC-MS/MS): 1250 ng/mL
level at 5 h (200 mg, Plasma concentration, geometric mean (CV%), 200 mg SC, day 3 cycle 1, 5 h after dosing, n = 4, LC-MS/MS): 958 ng/mL
level at 0.5 h (200 mg, Plasma concentration, geometric mean (CV%), 200 mg SC, day 18 cycle 1, 0.5 h after dosing, n = 3, LC-MS/MS): 811 ng/mL
level at 1 h (200 mg, Plasma concentration, geometric mean (CV%), 200 mg SC, day 18 cycle 1, 1 h after dosing, n = 3, LC-MS/MS): 1260 ng/mL
level at 1.5 h (200 mg, Plasma concentration, geometric mean (CV%), 200 mg SC, day 18 cycle 1, 1.5 h after dosing, n = 2 values (CV NC), LC-MS/MS): 1670 ng/mL
level at 2 h (200 mg, Plasma concentration, geometric mean (CV%), 200 mg SC, day 18 cycle 1, 2 h after dosing, n = 2 values (CV NC), LC-MS/MS): 1580 ng/mL
level at 3.5 h (200 mg, Plasma concentration, geometric mean (CV%), 200 mg SC, day 18 cycle 1, 3.5 h after dosing, n = 3, LC-MS/MS): 1130 ng/mL
level at 5 h (200 mg, Plasma concentration, geometric mean (CV%), 200 mg SC, day 18 cycle 1, 5 h after dosing, n = 3, LC-MS/MS): 890 ng/mL
level at 0.5 h (200 mg, Plasma concentration, geometric mean (CV%), 200 mg SC, day 18 cycle 2, 0.5 h after dosing, n = 2, LC-MS/MS): 1210 ng/mL
level at 1 h (200 mg, Plasma concentration, geometric mean (CV%), 200 mg SC, day 18 cycle 2, 1 h after dosing, n = 2, LC-MS/MS): 1470 ng/mL
level at 1.5 h (200 mg, Plasma concentration, geometric mean (CV%), 200 mg SC, day 18 cycle 2, 1.5 h after dosing, n = 2, LC-MS/MS): 1890 ng/mL
level at 2 h (200 mg, Plasma concentration, geometric mean (CV%), 200 mg SC, day 18 cycle 2, 2 h after dosing, n = 2, LC-MS/MS): 1360 ng/mL
level at 3.5 h (200 mg, Plasma concentration, geometric mean (CV%), 200 mg SC, day 18 cycle 2, 3.5 h after dosing, n = 2, LC-MS/MS): 911 ng/mL
level at 5 h (200 mg, Plasma concentration, geometric mean (CV%), 200 mg SC, day 18 cycle 2, 5 h after dosing, n = 2, LC-MS/MS): 690 ng/mL
level at 0.5 h (200 mg, Plasma concentration, geometric mean (CV%), 200 mg SC, day 18 cycle 4, 0.5 h after dosing, n = 2, LC-MS/MS): 1080 ng/mL
level at 1 h (200 mg, Plasma concentration, geometric mean (CV%), 200 mg SC, day 18 cycle 4, 1 h after dosing, n = 2, LC-MS/MS): 1410 ng/mL
level at 1.5 h (200 mg, Plasma concentration, geometric mean (CV%), 200 mg SC, day 18 cycle 4, 1.5 h after dosing, n = 2, LC-MS/MS): 1150 ng/mL
level at 2 h (200 mg, Plasma concentration, geometric mean (CV%), 200 mg SC, day 18 cycle 4, 2 h after dosing, n = 2, LC-MS/MS): 1500 ng/mL
level at 3.5 h (200 mg, Plasma concentration, geometric mean (CV%), 200 mg SC, day 18 cycle 4, 3.5 h after dosing, n = 2, LC-MS/MS): 1310 ng/mL
level at 5 h (200 mg, Plasma concentration, geometric mean (CV%), 200 mg SC, day 18 cycle 4, 5 h after dosing, n = 2, LC-MS/MS): 975 ng/mL
Tmax (200 mg, 200 mg SC, day 1 cycle 1, n = 4): 2.5 h
Tmax (200 mg, 200 mg SC, day 3 cycle 1, n = 4): 2 h
Tmax (200 mg, 200 mg SC, day 18 cycle 1, n = 3): 2.03 h
Tmax (200 mg, 200 mg SC, day 18 cycle 2, n = 2): 1.54 h
Tmax (200 mg, 200 mg SC, day 18 cycle 4, n = 2): 1.57 h
AUC(0-t) [1]: 11900 ng·h/mL
AUC(0-t) [2]: 12500 ng·h/mL
AUC(0-t) [3]: 10400 ng·h/mL
AUC(0-t) [4]: 8600 ng·h/mL
AUC(0-t) [5]: 26700 ng·h/mL
Cmax [1]: 2550 ng/mL
Cmax [2]: 2690 ng/mL
Cmax (300 mg, 300 mg SC, day 18 cycle 1, n = 3): 2880 ng/mL
Cmax [3]: 2780 ng/mL
Cmax [4]: 2140 ng/mL
Cmax [5]: 6830 ng/mL
level at 0.25 h (300 mg, Plasma concentration, geometric mean (CV%), 300 mg SC, day 1 cycle 1, 0.25 h after dosing, n = 3, LC-MS/MS): 1050 ng/mL
level at 0.75 h (300 mg, Plasma concentration, geometric mean (CV%), 300 mg SC, day 1 cycle 1, 0.75 h after dosing, n = 3, LC-MS/MS): 1970 ng/mL
level at 1.5 h (300 mg, Plasma concentration, geometric mean (CV%), 300 mg SC, day 1 cycle 1, 1.5 h after dosing, n = 3, LC-MS/MS): 2250 ng/mL
